Results on 13 compounds are retold here after patent publication US12595253B2, “Benzamides of pyrazolylamino-pyrimidinyl derivatives, and compositions and methods thereof” (LYNK PHARMACEUTICALS CO. LTD., priority 2019, dated 2026).

The target in data set [1] is T1, TYK2 (Homo sapiens, UniProt P29597).
T1 construct: purchased Carna Biosciences
Description: TYK2 microfluidic kinase assay (Caliper EZ Reader II, FAM labeled peptide substrate). Format: biochemical. In short, it runs like this:
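Kinase activity was measured in 50 mM HEPES, 0.01% Brij35, 10 mM MgCl2, 2 mM DTT with enzyme set for 10% peptide conversion. Compounds (3-fold dilutions from 5 μM top, 1% DMSO) were pre-incubated 10 min at ambient temperature. Reaction times: JAK1 120 min, JAK2 20 min, JAK2V617F 30 min, TYK2 10 min. EDTA stop.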

Data set [2] concerns the target T2, JAK1 (Homo sapiens, UniProt P23458).
T2 construct: purchased Carna Biosciences
Description: JAK1 microfluidic kinase assay (Caliper EZ Reader II, FAM labeled peptide substrate). Format: biochemical. The settings on record: IC50 JAK1 (5 nM) (1 m MATP), JAK1 5 nM, 1 mM ATP. The procedure, abridged: (§1)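 3-fold serial dilutions, top 5 μM, 1% DMSO final; 10 min preincubation with enzyme, RT. Buffer: 50 mM HEPES, 0.01% Brij35, 10 mM MgCl2, 2 mM DTT. Enzyme batch tuned to 10% peptide conversion. EDTA stop, mobility-shift readout, IC50 fit.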

A short description of data set [3]: Liver microsomes study, Phase I stability (HLM). The settings on record: pH 7.4; human liver microsomes 0.5 mg/mL, 1 μM test article; read-out: HLM Clint. In kind it is in vitro ADME, human. Here is the method: (§2) Commercially available liver microsomes (MsLM vendor: XENOTECH; RLM, DLM, MkL, HLM vendor: Corning) were used for study the Phase I stability of test articles. […] The reaction was initiated by addition of 80 μL of the NADPH regenerating system to 320 µL of each incubation mixture per time point. […] The 0-minute samples were prepared by addition of an 80 μL aliquot of each incubation mixture to 400 μL quench reagent to precipitate proteins. And then a 20 μL aliquot of the NADPH regenerating system was added. At 10, 30, and 90 minutes, the reaction will be stopped by the addition of cold acetonitrile solution containing tolbutamide and propanolol served as internal standard. The samples taken at all time points were centrifuged at 4000×g for 15 minutes. 80 μL of supernatant are taken into 96-well assay plates pre-added with 160 μL ultrapure water, and then analyzed by LC/MS/MS(Shimadzu LC30AD & API4000/API5000)). Concentrations of test articles, control compounds in the samples were determined by using LC/MS/MS) method. Plotting of the chromatograms and peak area integrations are carried out by Analyst (AB Sciex).
(§3) In the determination of the in vitro elimination constant, ke, of the control compounds, the analyte/internal standard peak area ratios will be converted to percentage remaining (% Remaining) with the following equation: […]
(§4) The slope was measured by the natural logarithm of the percentage of the residual compound and time, T½ and CLint were calculated according to the following formulas, V/M was equal to the 1/concentration of protein.
For orientation: Microsomes from liver hold many membrane-bound enzymes, among them those of drug oxidation.

Data set [4] has as its target T3, JAK2 (Homo sapiens, UniProt O60674).
T3 construct: purchased Carna Biosciences
Description: JAK2 microfluidic kinase assay (Caliper EZ Reader II, FAM labeled peptide substrate). Format: biochemical. In short, it runs like this: as §1

Data set [5] in a line: Liver microsomes study, Phase I stability (RLM). In kind it is in vitro ADME, rat. The settings on record: pH 7.4; rat liver microsomes 0.5 mg/mL, 1 μM test article; read-out: RLM Clint. As to the method: as §2, §3, §4
Data set [6] has as its target T4, JAK2V617F (Homo sapiens, UniProt O60674, V617F).
T4 construct: purchased Carna Biosciences
Description: JAK2V617F microfluidic kinase assay (Caliper EZ Reader II, FAM labeled peptide substrate). In kind it is biochemical. The note with it: JAK2V617F 2.5 nM, 1 mM ATP. In short, it runs like this:
as §1

Data set [7] is described as follows: Rat pharmacokinetic study (intravenous and oral). In kind it is in vivo. The settings on record: male, plasma, Sprague-Dawley rats, intravenous, 1 mg/kg, solution. Here is the method: Pharmacokinetic profile of test articles in rodent were evaluated in fasted male ICR mouse and Sprague-Dawley rats. […] Typically, mice were dosed with 2 mg/kg and 10 mg/kg by intravenous injection and oral gavage, respectively. Rats were dosed with 1 mg/kg and 5 mg/kg by intravenous injection and oral gavage, respectively. Beagle dogs were dosed with 1 mg/kg and 5 mg/kg by intravenous injection and oral gavage, respectively. After dosing, blood samples were collected at each time point. For IV injection group, time points were set at 5, 15, 30 min, and then 1, 2, 4, 8 and 24 hours after dosing. For oral gavage group, timepoints were set at 15, 30 m, and then 1, 2, 4, 8, and 24 hours. Blood was collected into appropriately labeled tubes containing K2EDTA as the anticoagulant. Plasma was obtained within 1 hours of blood collection by centrifugation at 8000×g and 4° C. for 6 minutes, and then stored at −20° C. until analyzed by LCMS/MS for quantification.

Setting [8] is: IC50 TYK2 ([…]) (1 mM ATP), TYK2 […], 1 mM ATP.
[9] abbreviates: IC50 JAK2 ([…]) (1 mM ATP), 1 mM ATP.
[10] abbreviates: IC50 TYK2 (10 nM) (Km ATP), TYK2 10 nM, Km ATP.
Setting [11] is: IC50 JAK2 ([…]) (Km ATP), Km ATP.

T2 sequence (P23458 whole entry): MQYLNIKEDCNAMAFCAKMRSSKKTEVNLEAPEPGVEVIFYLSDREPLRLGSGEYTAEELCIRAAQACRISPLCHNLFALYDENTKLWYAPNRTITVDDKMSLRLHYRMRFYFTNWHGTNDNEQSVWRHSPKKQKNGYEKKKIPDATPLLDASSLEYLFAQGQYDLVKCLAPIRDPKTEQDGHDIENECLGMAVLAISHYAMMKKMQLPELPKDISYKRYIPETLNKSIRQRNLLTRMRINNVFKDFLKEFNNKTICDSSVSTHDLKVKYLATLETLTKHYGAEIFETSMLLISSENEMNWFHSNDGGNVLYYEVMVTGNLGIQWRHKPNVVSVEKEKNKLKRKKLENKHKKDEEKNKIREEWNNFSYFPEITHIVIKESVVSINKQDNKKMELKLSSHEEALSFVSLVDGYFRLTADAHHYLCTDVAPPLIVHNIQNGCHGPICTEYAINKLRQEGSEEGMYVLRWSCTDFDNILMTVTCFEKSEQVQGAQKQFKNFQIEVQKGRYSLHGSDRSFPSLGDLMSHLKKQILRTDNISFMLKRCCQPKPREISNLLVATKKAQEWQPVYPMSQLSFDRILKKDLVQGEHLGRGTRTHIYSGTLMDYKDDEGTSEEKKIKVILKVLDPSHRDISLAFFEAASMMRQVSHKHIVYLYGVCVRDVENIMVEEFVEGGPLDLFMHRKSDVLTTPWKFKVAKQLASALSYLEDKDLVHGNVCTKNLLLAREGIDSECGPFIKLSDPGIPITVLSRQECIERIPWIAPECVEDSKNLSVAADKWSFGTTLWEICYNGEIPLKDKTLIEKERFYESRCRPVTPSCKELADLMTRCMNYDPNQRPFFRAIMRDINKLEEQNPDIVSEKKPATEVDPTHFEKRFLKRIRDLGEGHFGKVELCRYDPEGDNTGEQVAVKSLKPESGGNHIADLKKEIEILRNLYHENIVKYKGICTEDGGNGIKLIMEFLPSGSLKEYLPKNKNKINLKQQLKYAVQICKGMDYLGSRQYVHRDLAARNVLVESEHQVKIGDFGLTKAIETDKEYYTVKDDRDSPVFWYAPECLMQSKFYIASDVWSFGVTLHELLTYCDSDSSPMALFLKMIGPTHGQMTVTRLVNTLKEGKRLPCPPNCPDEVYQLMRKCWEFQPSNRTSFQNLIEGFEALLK
T4 sequence (O60674 whole entry V617F): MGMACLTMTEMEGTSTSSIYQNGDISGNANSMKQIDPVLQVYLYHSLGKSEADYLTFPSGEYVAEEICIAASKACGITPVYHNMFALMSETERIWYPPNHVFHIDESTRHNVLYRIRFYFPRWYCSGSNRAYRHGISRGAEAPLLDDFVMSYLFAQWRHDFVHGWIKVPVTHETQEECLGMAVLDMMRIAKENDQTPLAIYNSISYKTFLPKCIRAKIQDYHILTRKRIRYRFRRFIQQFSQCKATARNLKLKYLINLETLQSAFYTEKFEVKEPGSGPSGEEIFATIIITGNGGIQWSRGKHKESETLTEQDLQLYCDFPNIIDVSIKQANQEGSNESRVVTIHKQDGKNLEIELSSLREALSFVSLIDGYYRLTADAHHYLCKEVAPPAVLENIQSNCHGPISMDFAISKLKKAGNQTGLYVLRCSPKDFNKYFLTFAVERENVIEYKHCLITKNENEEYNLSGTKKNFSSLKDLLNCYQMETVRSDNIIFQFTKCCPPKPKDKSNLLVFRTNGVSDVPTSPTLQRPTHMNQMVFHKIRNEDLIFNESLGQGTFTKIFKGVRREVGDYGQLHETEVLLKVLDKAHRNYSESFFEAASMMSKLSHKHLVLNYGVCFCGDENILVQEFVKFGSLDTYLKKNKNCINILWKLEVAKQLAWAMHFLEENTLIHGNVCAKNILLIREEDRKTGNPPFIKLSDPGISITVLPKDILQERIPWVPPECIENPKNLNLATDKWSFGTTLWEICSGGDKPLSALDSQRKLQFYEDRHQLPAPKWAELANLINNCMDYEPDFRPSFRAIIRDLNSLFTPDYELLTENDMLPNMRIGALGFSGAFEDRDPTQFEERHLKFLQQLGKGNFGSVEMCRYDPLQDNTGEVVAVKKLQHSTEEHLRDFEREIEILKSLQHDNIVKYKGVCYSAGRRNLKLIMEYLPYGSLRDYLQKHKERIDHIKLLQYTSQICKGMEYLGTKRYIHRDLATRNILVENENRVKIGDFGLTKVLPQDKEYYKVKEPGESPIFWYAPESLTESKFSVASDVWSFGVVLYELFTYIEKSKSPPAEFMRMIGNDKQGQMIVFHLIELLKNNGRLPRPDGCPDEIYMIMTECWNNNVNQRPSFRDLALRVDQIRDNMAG
T3 sequence (O60674 whole entry): as the sequence (O60674 whole entry V617F) above, with F617V counted along it
T1 sequence (P29597 whole entry): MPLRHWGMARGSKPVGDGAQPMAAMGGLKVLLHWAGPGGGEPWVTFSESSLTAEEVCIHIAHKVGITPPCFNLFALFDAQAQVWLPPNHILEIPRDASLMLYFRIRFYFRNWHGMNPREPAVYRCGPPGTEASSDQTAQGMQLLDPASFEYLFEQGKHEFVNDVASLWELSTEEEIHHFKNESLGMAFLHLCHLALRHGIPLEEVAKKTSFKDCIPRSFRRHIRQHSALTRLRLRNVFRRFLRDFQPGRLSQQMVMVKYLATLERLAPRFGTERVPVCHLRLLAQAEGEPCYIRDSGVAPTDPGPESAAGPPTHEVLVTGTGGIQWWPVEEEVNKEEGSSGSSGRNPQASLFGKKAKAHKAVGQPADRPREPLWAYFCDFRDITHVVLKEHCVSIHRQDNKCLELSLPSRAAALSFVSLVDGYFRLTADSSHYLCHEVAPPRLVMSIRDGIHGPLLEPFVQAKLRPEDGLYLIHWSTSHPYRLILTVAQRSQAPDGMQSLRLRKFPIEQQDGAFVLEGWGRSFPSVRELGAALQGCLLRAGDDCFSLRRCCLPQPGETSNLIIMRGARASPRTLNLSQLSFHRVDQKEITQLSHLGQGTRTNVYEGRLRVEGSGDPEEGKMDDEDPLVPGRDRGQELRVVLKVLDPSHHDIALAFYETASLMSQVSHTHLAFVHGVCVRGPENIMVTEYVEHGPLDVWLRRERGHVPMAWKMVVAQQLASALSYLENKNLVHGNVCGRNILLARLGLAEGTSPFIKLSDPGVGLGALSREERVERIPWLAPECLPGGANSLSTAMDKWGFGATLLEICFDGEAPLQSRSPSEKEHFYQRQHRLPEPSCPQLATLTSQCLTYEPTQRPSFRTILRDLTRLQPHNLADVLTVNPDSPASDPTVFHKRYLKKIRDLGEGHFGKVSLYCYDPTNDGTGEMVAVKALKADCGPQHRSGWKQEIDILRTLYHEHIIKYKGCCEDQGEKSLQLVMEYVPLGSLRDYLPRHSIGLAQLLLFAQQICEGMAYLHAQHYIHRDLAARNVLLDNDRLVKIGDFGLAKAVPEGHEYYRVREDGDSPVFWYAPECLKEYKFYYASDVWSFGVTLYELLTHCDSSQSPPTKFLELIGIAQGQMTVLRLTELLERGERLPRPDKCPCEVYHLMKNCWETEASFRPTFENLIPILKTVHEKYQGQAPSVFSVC

Consider `Cc1cnc(Nc2cnn(C3CCN(C)CC3)c2)nc1-c1ccc(C(=O)N[C@H](C#N)C(C)C)cc1` [Example 174, (S)—N-(1-cyano-2-methylpropyl)-4-(5-methyl-2-((1-(1-methylpiperidin-4-yl)-1H-pyrazol-4-yl)amino)pyrimidin-4-yl)benzamide], for which the 50% inhibitory concentration (IC50) – broadly, the concentration that inhibits the measured activity by half – in data set [1] (setting [8]) is 1.33 nM; in data set [2], 1.28 nM; in data set [4] (setting [9]), 0.86 nM. In addition, the results for the microsomal CLint at 1 μM in data set [3] and in data set [5] were 45.7 µL/min/mg and 115 µL/min/mg, respectively.
For the compound `Cc1cnc(Nc2cnn(C3CCN(C(=O)C4CC4)CC3)c2)nc1-c1ccc(C(=O)N[C@@H](C)C#N)cc1` [Example 163, (S)—N-(1-cyanoethyl)-4-(2-((1-(1-(cyclopropanecarbonyl)piperidin-4-yl)-1H-pyrazol-4-yl)amino)-5-methylpyrimidin-4-yl)benzamide], the figures for the concentration for half-maximal inhibition (IC50) in data set [1] (setting [10]) and in data set [4] (setting [9]) were 12 nM and 0.69 nM, respectively. Further, the microsomal CLint at 1 μM in data set [3] is 68.4 µL/min/mg; in data set [5], 54.9 µL/min/mg.
With `Cc1cnc(Nc2cnn(C3C[C@@H](C)O[C@@H](C)C3)c2)nc1-c1ccc(C(=O)N[C@@H](C)C#N)cc1` (stereo partly drawn) [Example 73, N—((S)-1-cyanoethyl)-4-(2-((1-(cis-2,6-dimethyltetrahydro-2H-pyran-4-yl)-1H-pyrazol-4-yl)amino)-5-methylpyrimidin-4-yl)benzamide], the concentration for half-maximal inhibition (IC50) in data set [1] (setting [8]) stood at 74.4 nM; in data set [2], 34.4 nM; in data set [6], 8.15 nM. The microsomal CLint at 1 μM in data set [3] is 268 µL/min/mg; in data set [5], 259 µL/min/mg.
Turning to `Cc1cnc(Nc2cnn(C)c2)nc1-c1ccc(C(=O)NCC2(C#N)CC2)cc1` [Example 12, N-((1-Cyanocyclopropyl)methyl)-4-(5-methyl-2-((1-methyl-1H-pyrazol-4-yl)amino)pyrimidin-4-yl)benzamide], inhibition in data set [2] was half-maximal at 37.5 nM (IC50). For the same compound, the microsomal CLint at 1 μM in data set [3] was 4.6 µL/min/mg. Also, half-maximal inhibition in data set [4] (setting [9]) (IC50) was put at 95.5 nM. In data set [4] (setting [11]), this compound came in with an IC50 of 3.2 nM. Also, the microsomal CLint at 1 μM in data set [5] came out at 132 µL/min/mg. For the same compound, in data set [7], the exposure (AUC) – broadly, concentration integrated over time – was 624 ng·h/mL; the Vd is 0.98 L/kg; the clearance amounted to 27.1 mL/min/kg; the half-life (as a rule, how long it takes for the measured level to halve) is 26.4 min.
For the compound `Cc1cnc(Nc2cnn(C3CC3)c2)nc1-c1ccc(C(=O)NC2(C#N)CC2)cc1` [Example 160, N-(1-cyanocyclopropyl)-4-(2-((1-cyclopropyl-1H-pyrazol-4-yl)amino)-5-methylpyrimidin-4-yl)benzamide], the results for the half-maximal inhibitory concentration (IC50) in data set [1] (setting [10]), in data set [4] (setting [9]) and in data set [4] (setting [11]) were 17.2 nM, 70.4 nM and 0.73 nM, respectively. Moreover, the microsomal CLint at 1 μM in data set [3] is 16.9 µL/min/mg; in data set [5], 110 µL/min/mg.
As to `Cc1cnc(Nc2cnn(CC(F)(F)F)c2)nc1-c1ccc(C(=O)NCC#N)cc1` [Example 28, N-(Cyanomethyl)-4-(5-methyl-2-((1-(2,2,2-trifluoroethyl)-1H-pyrazol-4-yl)amino)pyrimidin-4-yl)benzamide], the IC50 in data set [6] turned out to be 193 nM. Also, the IC50 in data set [4] (setting [9]) came to 82.2 nM. Also, half-maximal inhibition in data set [4] (setting [11]) (IC50) was put at 2.73 nM. In addition, in data set [7], the area under the curve (AUC) came to 732 ng·h/mL, the Vd came to 0.8 L/kg, the clearance is 22.9 mL/min/kg and the half-life was 24 min.
Take `C[C@H](C#N)NC(=O)c1ccc(-c2nc(Nc3cnn(C)c3)ncc2Cl)cc1` [Example 97, (R)-4-(5-Chloro-2-((1-methyl-1H-pyrazol-4-yl)amino)pyrimidin-4-yl)-N-(1-cyanoethyl)benzamide]: the results for the IC50 in data set [1] (setting [8]), in data set [2] and in data set [6] were 218 nM, 11.3 nM and 147 nM, respectively. Moreover, the microsomal CLint at 1 μM in data set [3] stood at 2.39 µL/min/mg; in data set [5], 16.9 µL/min/mg.
As to `Cc1cnc(Nc2cnn(C3CCN(C)CC3)c2)nc1-c1ccc(C(=O)N[C@H](C#N)C2CC2)cc1` [Example 180, (S)—N-(cyano(cyclopropyl)methyl)-4-(5-methyl-2-((1-(1-methylpiperidin-4-yl)-1H-pyrazol-4-yl)amino)pyrimidin-4-yl)benzamide], the IC50 in data set [1] (setting [8]) was found to be 1.04 nM; in data set [2], 0.85 nM; in data set [4] (setting [9]) it was 0.59 nM. Moreover, the microsomal CLint at 1 μM in data set [3] was 23.1 µL/min/mg; in data set [5], 91.8 µL/min/mg.
On the same counts, the results for `Cc1cnc(Nc2cnn(C(C)C(F)(F)F)c2)nc1-c1ccc(C(=O)N[C@@H](C)C#N)cc1` (stereo partly drawn) [Example 166, N—((S)-1-Cyanoethyl)-4-(5-methyl-2-((1-(1,1,1-trifluoropropan-2-yl)-1H-pyrazol-4-yl)amino)pyrimidin-4-yl)benzamide] are 22.1 nM, 10.4 nM, 15.6 nM, 7.27 µL/min/mg and 161 µL/min/mg.
The matching figures for `CC[C@@H](C#N)NC(=O)c1ccc(-c2nc(Nc3cnn(C4CC(C)(C)OC(C)(C)C4)c3)ncc2Cl)cc1` [Example 182, (S)-4-(5-Chloro-2-((1-(2,2,6,6-tetramethyltetrahydro-2H-pyran-4-yl)-1H-pyrazol-4-yl)amino)pyrimidin-4-yl)-N-(1-cyanopropyl)benzamide]: 0.58 nM, 8.65 nM, under 0.25 nM, 180 µL/min/mg and 51.9 µL/min/mg.
Regarding `Cc1cnc(Nc2cnn(C3CCN(C(=O)[C@H]4CC4(C)C)CC3)c2)nc1-c1ccc(C(=O)NCC#N)cc1` [Example 143, (S)—N-(cyanomethyl)-4-(2-((1-(1-(2,2-dimethylcyclopropanecarbonyl)piperidin-4-yl)-1H-pyrazol-4-yl)amino)-5-methylpyrimidin-4-yl)benzamide], the figures for the half-inhibitory concentration (IC50) in data set [2], in data set [6] and in data set [4] (setting [9]) were 15.4 nM, 17.3 nM and 0.4 nM, respectively. Also, the microsomal CLint at 1 μM in data set [3] turned out to be 1430 µL/min/mg; in data set [5], 599 µL/min/mg.
For `Cc1cnc(Nc2cnn(C3CCN(C(=O)C4CC4)CC3)c2)nc1-c1ccc(C(=O)NCC2(C#N)CC2)cc1` [Example 158, N-((1-cyanocyclopropyl)methyl)-4-(2-((1-(1-(cyclopropanecarbonyl)piperidin-4-yl)-1H-pyrazol-4-yl)amino)-5-methylpyrimidin-4-yl)benzamide], the half-maximal inhibitory concentration (IC50) in data set [2] amounted to 23.9 nM; in data set [6], 28.2 nM; in data set [4] (setting [9]), 0.88 nM. Further, the microsomal CLint at 1 μM in data set [3] was 142 µL/min/mg; in data set [5], 124 µL/min/mg.
For the compound `Cc1cnc(Nc2cnn(C3CCOCC3)c2)nc1-c1ccc(C(=O)NCC2(C#N)CC2)cc1` [Example 37, N-((1-cyanocyclopropyl)methyl)-4-(5-methyl-2-((1-(tetrahydro-2H-pyran-4-yl)-1H-pyrazol-4-yl)amino)pyrimidin-4-yl)benzamide], the figures for the concentration for half-maximal inhibition (IC50) in data set [1] (setting [10]), in data set [4] (setting [9]) and in data set [4] (setting [11]) were 28.8 nM, 50.5 nM and 0.54 nM, respectively. The microsomal CLint at 1 μM in data set [3] came out at 20.7 µL/min/mg; in data set [5], 40.7 µL/min/mg.
